target: human-cGAS (h-cGAS) (Homo sapiens, UniProt Q8N884); assay: hcGAS Kinase-Glo Assay; format: biochemical; conditions: 40 nM h-cGAS, 100 μM ATP, 100 μM GTP, 25 nM dsDNA, 3 h incubation, read-out: hcGAS potency IC50
Procedure, shortened: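 Kinase-Glo luminescent read-out of human cGAS activity, following the published Lama et al. (2019) protocol with slightly altered conditions. Inhibition reported as IC50.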

Sequence of human-cGAS (h-cGAS) (Q8N884 whole entry): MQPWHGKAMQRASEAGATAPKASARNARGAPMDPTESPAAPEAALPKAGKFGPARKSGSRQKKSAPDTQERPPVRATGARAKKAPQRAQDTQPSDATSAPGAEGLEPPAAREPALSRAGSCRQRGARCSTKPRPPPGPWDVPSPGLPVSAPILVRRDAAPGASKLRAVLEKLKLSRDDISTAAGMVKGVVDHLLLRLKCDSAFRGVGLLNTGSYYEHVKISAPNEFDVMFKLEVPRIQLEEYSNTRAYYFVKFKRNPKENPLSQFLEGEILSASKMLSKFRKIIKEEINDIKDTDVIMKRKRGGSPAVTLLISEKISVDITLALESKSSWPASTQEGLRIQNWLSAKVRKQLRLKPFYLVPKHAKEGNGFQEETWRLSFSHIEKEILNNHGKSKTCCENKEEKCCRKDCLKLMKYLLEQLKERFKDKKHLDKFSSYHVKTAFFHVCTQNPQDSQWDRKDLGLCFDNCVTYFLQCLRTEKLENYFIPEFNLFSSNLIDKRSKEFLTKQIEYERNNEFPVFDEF

Row | SMILES | IC50 [nM]
1 | O=C(Nc1nnc(-c2ccccc2Cl)s1)c1cc(O)no1 [Compound 55, N-(5-(2-chlorophenyl)-1,3,4-thiadiazol-2-yl)-3-hydroxyisoxazole-5-carboxamide] | < 100
2 | CSc1nnc(NC(=O)c2cc(C3CCOCC3)no2)s1 [Compound 80, N-(5-(methylthio)-1,3,4-thiadiazol-2-yl)-3-(tetrahydro-2H-pyran-4-yl)isoxazole-5-carboxamide] | 500 to 1000
3 | O=C(Nc1nnc(-c2cccc(Cl)c2)s1)c1onc2ccccc12 [Compound 23, N-(5-(3-chlorophenyl)-1,3,4-thiadiazol-2-yl)benzo[c]isoxazole-3-carboxamide] | ≥ 1000
4 | CSc1nnc(NC(=O)c2cc(-c3ccccc3C)cc(=O)o2)s1 [Compound 248] | 100 to 500
5 | CSc1nnc(NC(=O)c2onc3c2CCc2sc(C)nc2-3)s1 [Compound 181, 7-methyl-N-(5-(methylthio)-1,3,4-thiadiazol-2-yl)-4,5-dihydrothiazolo[5′,4′:5,6]benzo[1,2-c]isoxazole-3-carboxamide] | 500 to 1000
6 | CSc1nnc(NC(=O)c2nnc(-c3cccnc3)o2)s1 [Compound 107, N-[5-(methylsulfanyl)-1,3,4-thiadiazol-2-yl]-5-(pyridin-3-yl)-1,3,4-oxadiazole-2-carboxamide] | 500 to 1000
7 | CSc1nnc(NC(=O)c2cc(-c3cccc4c3OCCN4)cc(=O)o2)s1 [Compound 275, 4-(3,4-dihydro-2H-benzo[b][1,4]oxazin-8-yl)-N-(5-(methylthio)-1,3,4-thiadiazol-2-yl)-2-oxo-2H-pyran-6-carboxamide] | 100 to 500
8 | CSc1nnc(NC(=O)c2noc(N3CCC(C)(C)CC3)n2)s1 [Compound 102, 5-(4,4-dimethylpiperidin-1-yl)-N-(5-(methylthio)-1,3,4-thiadiazol-2-yl)-1,2,4-oxadiazole-3-carboxamide] | ≥ 1000
9 | CSc1nnc(NC(=O)c2nnc(N3CCCC(C(=O)O)C3)o2)s1 (stereo not shown) [Compound 110, 1-(5-{[5-(methylsulfanyl)-1,3,4-thiadiazol-2-yl]carbamoyl}-1,3,4-oxadiazol-2-yl)piperidine-3-carboxylic acid] | 500 to 1000
10 | CSc1nnc(NC(=O)c2cc(-c3cccc(C)c3)cc(=O)o2)s1 [Compound 249, N-(5-methylsulfanyl-1,3,4-thiadiazol-2-yl)-4-(m-tolyl)-6-oxo-pyran-2-carboxamide] | 100 to 500
11 | O=C(Nc1nncs1)c1onc2c1ccc1cccnc12 [Compound 13, N-(1,3,4-thiadiazol-2-yl)isoxazolo[4,3-h]quinoline-3-carboxamide] | 500 to 1000
12 | CSc1nnc(NC(=O)c2cc(-c3ccccc3-c3ccccc3)cc(=O)o2)s1 [Compound 182, 4-([1,1′-biphenyl]-2-yl)-N-(5-(methylthio)-1,3,4-thiadiazol-2-yl)-2-oxo-2H-pyran-6-carboxamide] | 500 to 1000
13 | CSc1nnc(NC(=O)c2cc(-c3ccccc3Cl)cc(=O)o2)s1 [Compound 251, 4-(2-chlorophenyl)-N-(5-methylsulfanyl-1,3,4-thiadiazol-2-yl)-6-oxo-pyran-2-carboxamide] | 100 to 500
14 | O=C(Nc1nnc(-c2ccccc2Cl)s1)c1cc(=O)c2cccc(O)c2[nH]1 [Compound 51, N-(5-(2-chlorophenyl)-1,3,4-thiadiazol-2-yl)-8-hydroxy-4-oxo-1,4-dihydroquinoline-2-carboxamide] | 500 to 1000
15 | O=C(Nc1nnc(-c2ccccc2Cl)s1)c1nc[nH]n1 [Compound 58, N-(5-(2-chlorophenyl)-1,3,4-thiadiazol-2-yl)-1H-1,2,4-triazole-3-carboxamide] | 500 to 1000
16 | COc1cc(C(=O)Nc2nnc(-c3ccccc3Cl)s2)on1 [Compound 31, N-(5-(2-chlorophenyl)-1,3,4-thiadiazol-2-yl)-3-methoxyisoxazole-5-carboxamide] | 100 to 500
17 | CSc1nnc(NC(=O)c2nnc(N3CCNC(=O)C3)o2)s1 [Compound 124, N-(5-(methylthio)-1,3,4-thiadiazol-2-yl)-5-(3-oxopiperazin-1-yl)-1,3,4-oxadiazole-2-carboxamide] | ≥ 1000
18 | N#Cc1cc(C(=O)Nc2nnc(-c3ccccc3Cl)s2)on1 [Compound 37, N-(5-(2-chlorophenyl)-1,3,4-thiadiazol-2-yl)-3-cyanoisoxazole-5-carboxamide] | < 100
19 | CSc1nnc(NC(=O)c2nnn3c2ccc2ccccc23)s1 [Compound 190, N-(5-(methylthio)-1,3,4-thiadiazol-2-yl)-[1,2,3]triazolo[1,5-a]quinoline-3-carboxamide] | ≥ 1000
20 | CSc1nnc(NC(=O)c2cc(-c3ccc4cccnc4c3)cc(=O)o2)s1 [Compound 270, N-(5-(methylthio)-1,3,4-thiadiazol-2-yl)-2-oxo-4-(quinolin-7-yl)-2H-pyran-6-carboxamide] | 100 to 500
21 | O=C(Nc1nnc(-c2ccccc2Cl)s1)c1c[nH]c(=O)o1 [Compound 61, N-(5-(2-chlorophenyl)-1,3,4-thiadiazol-2-yl)-2-oxo-2,3-dihydrooxazole-5-carboxamide] | 100 to 500
22 | CSc1nnc(NC(=O)c2cc(-c3ccc4ccncc4c3)cc(=O)o2)s1 [Compound 264, 4-(isoquinolin-7-yl)-N-(5-(methylthio)-1,3,4-thiadiazol-2-yl)-2-oxo-2H-pyran-6-carboxamide] | 100 to 500
23 | O=C(Nc1nnc(-c2ccccn2)s1)c1onc2c1ccc1cccnc12 [Compound 10, N-(5-(pyridin-2-yl)-1,3,4-thiadiazol-2-yl)isoxazolo[4,3-h]quinoline-3-carboxamide] | 100 to 500
24 | CSc1nnc(NC(=O)c2cc(-c3cccc4ccccc34)cc(=O)o2)s1 [Compound 253, N-(5-methylsulfanyl-1,3,4-thiadiazol-2-yl)-4-(1-naphthyl)-6-oxo-pyran-2-carboxamide] | 100 to 500
25 | Cc1cnc(-c2cc(C(=O)Nc3nnc(-c4ccccc4Cl)s3)on2)nc1 [Compound 158, N-(5-(2-Chlorophenyl)-1,3,4-thiadiazol-2-yl)-3-(5-methylpyrimidin-2-yl)isoxazole-5-carboxamide] | 100 to 500
26 | CSc1nnc(NC(=O)c2cc(Oc3ccccc3)cc(=O)o2)s1 [Compound 202, N-(5-(methylthio)-1,3,4-thiadiazol-2-yl)-2-oxo-4-phenoxy-2H-pyran-6-carboxamide] | 500 to 1000
27 | CSc1nnc(NC(=O)c2nnc(N3CCCC[C@@H]3c3ccccc3)o2)s1 (single isomer, unassigned) [Compound 121*] | 500 to 1000

Further lines, results first:

Row | IC50 [nM] | SMILES
28 | ≥ 1000 | Cc1nnc(NC(=O)c2onc3ccccc23)s1 [Compound 81, N-(5-methyl-1,3,4-thiadiazol-2-yl)benzo[c]isoxazole-3-carboxamide]
29 | 500 to 1000 | CSc1nnc(NC(=O)c2onc3cc(CO)ccc23)s1 [Compound 194, 6-(hydroxymethyl)-N-(5-(methylthio)-1,3,4-thiadiazol-2-yl)benzo[c]isoxazole-3-carboxamide]
30 | ≥ 1000 | CSc1nnc(NC(=O)c2onc3c2CCCC3O)s1 (stereo not shown) [Compound 196, 7-Hydroxy-N-(5-(methylthio)-1,3,4-thiadiazol-2-yl)-4,5,6,7-tetrahydrobenzo[c]isoxazole-3-carboxamide]
31 | ≥ 1000 | COc1ccc(-c2cc(C(=O)Nc3nnc(SC)s3)on2)cc1 [Compound 210]
32 | 500 to 1000 | CSc1nnc(NC(=O)c2cc(-c3cccc(F)c3)no2)s1 [Compound 211, 3-(3-fluorophenyl)-N-[5-(methylsulfanyl)-1,3,4-thiadiazol-2-yl]-1,2-oxazole-5-carboxamide]
33 | 500 to 1000 | CSc1nnc(NC(=O)c2noc3c2CCc2cccnc2-3)s1 [Compound 180, N-(5-(methylthio)-1,3,4-thiadiazol-2-yl)-4,5-dihydroisoxazolo[4,5-h]quinoline-3-carboxamide]
34 | ≥ 1000 | CSc1nnc(NC(=O)c2cc(=O)c3cccc(O)c3[nH]2)s1 [Compound 199, 8-hydroxy-N-(5-(methylthio)-1,3,4-thiadiazol-2-yl)-4-oxo-1,4-dihydroquinoline-2-carboxamide]
35 | ≥ 1000 | CSc1nnc(NC(=O)c2cc(-c3cccc(OC(F)(F)F)c3)no2)s1 [Compound 83, N-(5-(methylthio)-1,3,4-thiadiazol-2-yl)-3-(3-(trifluoromethoxy)phenyl)isoxazole-5-carboxamide]
36 | ≥ 1000 | CSc1nnc(NC(=O)c2onc3ccc(CO)cc23)s1 [Compound 191, 5-(hydroxymethyl)-N-(5-(methylthio)-1,3,4-thiadiazol-2-yl)benzo[c]isoxazole-3-carboxamide]
37 | ≥ 1000 | CSc1nnc(NC(=O)c2onc3ccc(Cc4c[nH]c(=O)c(O)c4)cc23)s1 [Compound 189, 5-((5-Hydroxy-6-oxo-1,6-dihydropyridin-3-yl)methyl)-N-(5-(methylthio)-1,3,4-thiadiazol-2-yl)benzo[c]isoxazole-3-carboxamide]
38 | 100 to 500 | CSc1nnc(NC(=O)c2cc(-c3ccccc3)c(C)c(=O)o2)s1 [Compound 203, 3-methyl-N-(5-(methylthio)-1,3,4-thiadiazol-2-yl)-2-oxo-4-phenyl-2H-pyran-6-carboxamide]
39 | ≥ 1000 | CCCc1nnc(NC(=O)c2onc3ccccc23)s1 [Compound 20, N-(5-propyl-1,3,4-thiadiazol-2-yl)benzo[c]isoxazole-3-carboxamide]
40 | 100 to 500 | CSc1nnc(NC(=O)c2cc(-c3c(F)cccc3F)no2)s1 [Compound 46, 3-(2,6-difluorophenyl)-N-(5-(methylthio)-1,3,4-thiadiazol-2-yl)isoxazole-5-carboxamide]
41 | 500 to 1000 | CSc1nnc(NC(=O)c2onc3c(CO)cccc23)s1 [Compound 168, 7-(hydroxymethyl)-N-(5-(methylthio)-1,3,4-thiadiazol-2-yl)benzo[c]isoxazole-3-carboxamide]
42 | 500 to 1000 | CSc1nnc(NC(=O)c2noc(-c3ccccn3)n2)s1 [Compound 104, N-[5-(methylsulfanyl)-1,3,4-thiadiazol-2-yl]-5-(132yridine-2-yl)-1,2,4-oxadiazole-3-carboxamide]
43 | ≥ 1000 | CSc1nnc(NC(=O)c2onc3c(C)cccc23)s1 [Compound 226, 7-methyl-N-[5-(methylsulfanyl)-1,3,4-thiadiazol-2-yl]-2,1-benzoxazole-3-carboxamide]
